The source of these data is US6504005B1, “Long-acting drugs and pharmaceutical compositions comprising them” (Yeda Research and Development Co. Ltd., priority 1996, dated 2003).

The test system of data set [1] is Staphylococcus aureus. The following applies: relative to cephalexin control. The protocol: At the indicated time points, aliquots were withdrawn and analyzed for their potency to arrest growth of Staphylococcus aureus. Bacterial growth was then evaluated by increased turbidity measured spectroscopically at 700 nm.
For data set [2], the system named is intact rat adipocytes. The class given is cell-based. The following applies: for Activity following incubation at pH 8.5, 37° C. (%), 9 hrs: 9 hrs at pH 8.5, 37° C.; for Activity following incubation at pH 8.5, 37° C. (%), 20 hrs: 20 hrs at pH 8.5, 37° C.; for Activity following incubation at pH 8.5, 37° C. (%), 45 hrs: 45 hrs at pH 8.5, 37° C. The protocol: (iii) Lipogenesis (Incorporation of Labeled Glucose into the Lipids of Intact Adipocytes) Rat adipocytes were prepared essentially by the method of Rodbell, 1964. The fat pads of male Wistar rats were cut into small pieces with scissors and suspended in 3 ml of KRB buffer containing NaCl, 110 mM; NaHCO3, 25 mM; Kcl, 5 mM; […] CaCl2, 1.3 mM; […] Five milliliters of buffer was then added, and the cells were passed through a mesh screen. The cells were then allowed to stand for several minutes in a 15 ml plastic test tube at room temperature, floating, and the buffer underneath was removed. This procedure (suspension, floating, and removal of buffer underneath) was repeated three times. […] Lipogenesis was terminated by adding toluene-based scintillation fluid (1.0 ml per vial) and the radioactivity in extracted lipids was counted (Moody et al., 1974).

The subject of data set [3] is normal rats. The data set is described as follows: Single intraperitoneal administration to normal rats, blood glucose levels. The class given is in vivo. To be noted: single i.p. injection, 3 mg/rat.
Protocol: This assay reflects the post-subcutaneous long-acting feature of insulin (or insulin derivatives) within the circulation. Normal rats received a single intraperitoneal injection of native insulin, NPH-insulin and (Fmoc)2-insulin (3 mg/rat), and their blood glucose levels were monitored over a period of three days.
Blood glucose levels were followed for two days.
In data set [4] the test system is hGH receptor. The data set is described as follows: Displacement of iodinated hGH (receptor binding assay). As for the experimental part:
Incubation of Fmoc-hGH at pH 8.5 (37° C.) for about 6 days or at pH 10.5 (37° C.) for four days yielded fully active, native hGH, as judged by HPLC analysis and by receptor binding assays.

The nature of data set [5]: Conversion of Fmoc-hGH to native hGH upon incubation (analytical HPLC). Type of data set: physicochemical. To be noted: pH 8.5, 37° C. As for the experimental part:
Conversion of Fmoc-hGH to native hGH was evaluated by the increase in peak area corresponding to native hGH.

Assay in data set [6]: not given
The source holds these as a separate data set.

The target in data set [7] is insulin receptor tyrosine kinase (Rattus norvegicus, UniProt P15127). Description: Insulin receptor tyrosine kinase activity, [poly(Glu4Tyr)] phosphorylating assay (cell-free). The following applies: for Biological potency following incubation (2 days, 37° C., pH 8.5): after 2 days; for Biological potency (%): of native insulin potency, before incubation, [poly(Glu4Tyr)] phosphorylating assay.
Chain of insulin receptor tyrosine kinase (P15127 27-759 limits assumed): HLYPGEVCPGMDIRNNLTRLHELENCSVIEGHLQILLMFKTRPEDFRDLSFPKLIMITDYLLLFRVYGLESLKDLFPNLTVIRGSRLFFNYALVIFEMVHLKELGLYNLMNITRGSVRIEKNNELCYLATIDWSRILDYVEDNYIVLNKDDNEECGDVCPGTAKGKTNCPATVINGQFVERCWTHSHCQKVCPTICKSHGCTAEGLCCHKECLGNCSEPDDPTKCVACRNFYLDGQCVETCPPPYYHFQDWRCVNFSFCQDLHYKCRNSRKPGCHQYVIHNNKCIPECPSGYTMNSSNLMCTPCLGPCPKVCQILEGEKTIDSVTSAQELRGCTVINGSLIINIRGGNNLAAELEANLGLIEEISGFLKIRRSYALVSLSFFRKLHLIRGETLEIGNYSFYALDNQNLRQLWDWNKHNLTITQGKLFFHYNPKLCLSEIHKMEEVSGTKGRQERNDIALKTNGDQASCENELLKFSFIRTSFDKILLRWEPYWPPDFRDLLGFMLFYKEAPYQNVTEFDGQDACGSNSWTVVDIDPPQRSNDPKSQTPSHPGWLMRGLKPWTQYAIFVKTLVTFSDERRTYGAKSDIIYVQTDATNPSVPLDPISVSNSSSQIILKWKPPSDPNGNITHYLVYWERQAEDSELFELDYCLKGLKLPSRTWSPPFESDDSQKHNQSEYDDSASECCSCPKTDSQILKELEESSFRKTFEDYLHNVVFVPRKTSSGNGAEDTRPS
Chain of insulin receptor tyrosine kinase (P15127 764-1383 partner limits assumed): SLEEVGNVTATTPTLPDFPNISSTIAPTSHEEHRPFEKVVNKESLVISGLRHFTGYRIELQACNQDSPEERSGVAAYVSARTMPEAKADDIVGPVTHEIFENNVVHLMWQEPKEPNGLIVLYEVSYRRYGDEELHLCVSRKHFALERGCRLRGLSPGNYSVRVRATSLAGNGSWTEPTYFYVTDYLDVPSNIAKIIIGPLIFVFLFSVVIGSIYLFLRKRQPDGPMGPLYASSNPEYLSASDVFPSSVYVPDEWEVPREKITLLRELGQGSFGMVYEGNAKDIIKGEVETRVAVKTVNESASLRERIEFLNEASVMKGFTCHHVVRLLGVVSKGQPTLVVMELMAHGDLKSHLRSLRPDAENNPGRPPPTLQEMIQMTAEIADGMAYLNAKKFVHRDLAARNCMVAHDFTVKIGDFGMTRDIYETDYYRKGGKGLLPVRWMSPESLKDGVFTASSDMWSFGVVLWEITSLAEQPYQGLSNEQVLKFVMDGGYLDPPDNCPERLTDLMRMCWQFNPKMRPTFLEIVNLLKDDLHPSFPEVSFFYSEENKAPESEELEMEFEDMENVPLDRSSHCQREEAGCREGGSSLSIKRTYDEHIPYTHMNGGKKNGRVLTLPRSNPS
Protocol: Briefly, the liver was homogenized in the presence of proteinase inhibitors, solubilized with 1% Triton X-100, and centrifuged. The supernatant was allowed to pass through a wheat-germ agglutinin (WGA)-agarose column (Sigma). Adsorbed insulin receptor portion was eluted with 0.3M N-acetyl-D-glucose amine in 50 mM HEPES buffer, pH 7.4, containing 0.1% Triton X-100, 10% glycerol, and 0.15M NaCl.
(iv) Receptor Tyrosine Kinase Activity Measurement
In this assay insulin activates its own receptor to phosphorylate a random copolymer containing L-glutamic acid and L-tyrosine at 4:1 molar ratio [Poly(Glu4Tyr)]SEQ ID NO:1. The standard enzyme assay mixture (final volume 60 μl in 50 mM Hepes, pH 7.4-0.1% Triton X-100) contained WGA purified insulin receptor (5μg protein), 20 mM MgCl2, 2 mM MnCl2, 100 μM ATP and varying concentrations (from 1 ng/ml to 10 mg/ml) of insulin or insulin derivative. Following a 30 min preincubation at 22° C., the reaction was initiated by adding Poly(Glu4Tyr) SEQ ID NO:1 (final concentration 0.7 mg/ml), it proceeded for 20 min at 22° C. and was terminated by adding EDTA (20 mM). Phosphotyrosine content in PolyGlu4Tyr was quantitated by a radio-immunoassay procedure using specific monoclonal antibodies to phosphotyrosine (final dilution 1: 100,000) and ^125I-BSA-phosphotyrosine conjugate.

The nature of data set [8]: Solubility and appearance in aqueous buffer (pH 7.4).
The conditions of data set [9]: cited from earlier work.
Data set [10] is classed as physicochemical. The protocol: (i.e. at physiological pH and body temperature). At the indicated time points aliquots were withdrawn for determining the biological potency relative to native insulin. Biological activities were evaluated by Insulin receptor tyrosine kinase activation (a cell free assay as described in Biological Procedures above, section (iv)) and by stimulation of lipogenesis in intact rat adipocytes as described in Biological Procedures, […].

Data set [11] concerns STZ-diabetic rats. Description: Single subcutaneous administration to STZ-diabetic rats (blood glucose, daily weight gain). The following applies: STZ rats.
Protocol: Diabetes was induced by a single intravenous injection of a freshly prepared solution of streptozotocin (55 mg/kg body weight) in 0.1M citrate buffer (pH 4.5) according to Meyerovitch et al., 1987.
Blood glucose levels and daily weight gains were followed over a period of seven days.
Group C (n=5) received the vehicle only (2.0 ml of 20% DMSO). Blood glucose levels were determined daily.
The test system of data set [12] is E. coli. The class given is cell-based. The following applies: for IC50: read-out: Concentration inhibiting 50% of bacterial growth; for Antimicrobial potency (%): relative to PMXB control. The protocol: At the indicated time points aliquots were withdrawn and analyzed for their potencies to arrest growth of E. coli, and bacterial growth was then evaluated by measuring turbidity at 700 nm.

Several values for one entry are separate records, joined by “and”; a condition that tells them apart may be missing. Identical values can stand only once. Like-named read-outs stand apart in the source and are kept apart here.

For `CC1=C(C(=O)O)N2C(=O)[C@@H](NC(=O)[C@H](N)c3ccccc3)[C@H]2SC1` [native cephalexin, 7-(D-α-aminophenylacetamido)desacetoxycephalosporanic acid, reference compound], the “Antimicrobial potency (%)” value in data set [1] (after 1 day at pH 7.4, 37° C.) worked out at 100%; in [1] (after 3 days at pH 7.4, 37° C.), 100%; in [1] (after 6 days at pH 7.4, 37° C.), 100%; in data set [1] (no incubation) it was 100%.
In the case of “(Sulfmoc)2-insulin: insulin carrying two (2-sulfo)Fmoc groups on amino groups, water soluble”, the “Biologically active (%)” value in data set [2] (before incubation, assay not given) came to 0.5%. For the same compound, in data set [2] (pH 8.5), the “t½ of return to fully-active native insulin (increase in biological potency)” value is on record as 4-6 hours. Also, the “Time to full reversion / hydrolysis to the native hormone, pH 7.4” value (37° C., pH 7.4) is 10 days. The “t½ of reversion, pH 7.4” value (buffer, pH 7.4) is 6 days. The “t½ of reversion, pH 8.5” value (buffer, pH 8.5) was 12-15 hours. Besides, the “Increase in rate of hydrolysis versus Fmoc moiety” value (sulfonic acid group at position 2) is reported as 2-3 fold. Further, in data set [3], the “Period of hypoglycemia / reduced blood glucose” value was 24 h and the “Recovery from hypoglycemia, t½” value was 14 h.
Take “Fmoc-hGH: human growth hormone modified with Fmoc-OSu”: the “Ability to displace iodinated hormone (%)” value was determined as 25% in [4] (after 1 day, pH 10.5, 37° C.); 100% in data set [4] (after 4 days, pH 10.5, 37° C.); 15% in data set [4] (no treatment). The “Incubation time yielding fully active, native hGH, pH 10.5” value in data set [4] (pH 10.5, 37° C.) is given as “four days”. The “Conversion to hGH (%)” value stood at 23% in data set [5] (1 day), 62% in data set [5] (2 days) and 100% in data set [5] (6 days). The “Incubation time yielding fully active, native hGH, pH 8.5” value in [5] was “about 6 days”.
Consider Gly^A1, Lys^B29-N-(Fmoc)2-insulin, for which, in data set [2], the “Activity following incubation at pH 8.5, 37° C. (%), 9 hrs” value stood at 10%; the “Activity following incubation at pH 8.5, 37° C. (%), 20 hrs” value is reported as 20%; the “Activity following incubation at pH 8.5, 37° C. (%), 45 hrs” value was 97%. The “Solubility in aqueous buffer (pH 7.4, mg/ml)” value (“Solubility in aqueous buffer” for short) in data set [6] was “˜2 mg/ml”. In addition, in data set [7], the “Biological potency following incubation (2 days, 37° C., pH 8.5)” value (from here on “Biological potency following incubation”) came out at 93 and the “Biological potency (%)” value was 2 ± 1%. The “Appearance in aqueous buffer (pH 7.4)” value in [8] is recorded as “cloudy”.
On to Gly^A1, Phe^B1-N-(Fmoc)2-insulin, for which, in data set [2], the “Activity following incubation at pH 8.5, 37° C. (%), 9 hrs” value is listed as 18%; the “Activity following incubation at pH 8.5, 37° C. (%), 20 hrs” value was found to be 40%; the “Activity following incubation at pH 8.5, 37° C. (%), 45 hrs” value worked out at 100%. Moreover, in data set [6], the “Solubility in aqueous buffer” value is given as “˜2 mg/ml”. Besides, in data set [7], the “Biological potency following incubation” value was determined as 97 and the “Biological potency (%)” value was found to be 3 ± 1%. Also, the “Appearance in aqueous buffer (pH 7.4)” value in data set [8] is “cloudy”.
Take “Gly^A1-N-(Fmoc)1-insulin [Gly^A1-N-Fmoc-insulin]”: in data set [2], the “Activity following incubation at pH 8.5, 37° C. (%), 9 hrs” value stood at 50% and the “Activity following incubation at pH 8.5, 37° C. (%), 20 hrs” value worked out at 100%. In addition, the “Solubility in aqueous buffer” value in data set [6] is on record as “˜3 mg/ml”. Besides, the “Biological potency (%)” value in [7] is 40 ± 2%. In addition, the “Appearance in aqueous buffer (pH 7.4)” value in data set [8] is “nearly clear”.
Take “Insulin lispro: human insulin analog with the sequence at B28 and B29 reversed”: in data set [9] (in vivo), the “Potency versus human insulin” value is “equipotent to human insulin”. In [9] (versus human insulin), the “Absorption from subcutaneous injection sites” value is reported as “absorbed more quickly”.
Lys^B29-N-(Fmoc)1-insulin: the “Solubility in aqueous buffer” value in data set [6] is listed as “˜3 mg/ml”. In data set [7], the “Biological potency following incubation” value is 94 and the “Biological potency (%)” value was determined as 78 ± 4%. Also, in data set [8], the “Appearance in aqueous buffer (pH 7.4)” value was “nearly clear”. In addition, the “t½ of activation (half maximal activation)” value in data set [10] (buffer, pH 7.4) is 120 h.
With Phe^B1, Lys^B29-N-(Fmoc)2-insulin, in [2], the “Activity following incubation at pH 8.5, 37° C. (%), 9 hrs” value is recorded as 10%; the “Activity following incubation at pH 8.5, 37° C. (%), 20 hrs” value was 20%; the “Activity following incubation at pH 8.5, 37° C. (%), 45 hrs” value is given as 98%. In [3], the “Period of hypoglycemia / reduced blood glucose” value is “about 48 hours” and the “Recovery from hypoglycemia, t½” value turned out to be 26 h. Moreover, in data set [6], the “Solubility in aqueous buffer” value is recorded as “˜2 mg/ml”. Moreover, in data set [7] (Lys^B29-N-(Fmoc)2 insulin), the “Biological potency (%)” value turned out to be 9%. For the same compound, in [7] (listed as N-(Fmoc)2-insulin Phe^B1, Lys^B29), the “Biological potency (%)” value was 9 ± 2%. In [11] (single s.c. 3 mg/rat), this compound had a Period of normoglycemia of 4 days. The “Daily weight gain gram/rat (over the first three days)” value in data set [11] (single s.c. 3 mg/rat, first three days) is reported as 11.5 ± 1.3 gram/rat. Moreover, the “Effectiveness in lowering blood glucose levels” value in data set [11] (single s.c. administration) is recorded as “as effective as the commercially available (insoluble) long-acting preparation”. Moreover, the “Appearance in aqueous buffer (pH 7.4)” value in data set [8] is given as “cloudy”. In [10] (pH 7.4, 37° C.), the “Lag period of activation” value is on record as “not seen” and the “Start of conversion to the native hormone after incubation” value was “starts shortly (within hours) after incubation”.
Consider Phe^B1-N-(Fmoc)1-insulin, for which the “Solubility in aqueous buffer” value in data set [6] is on record as “˜3 mg/ml”. Further, the “Biological potency (%)” value in [7] is listed as 76 ± 4%. Besides, the “Appearance in aqueous buffer (pH 7.4)” value in data set [8] is given as “nearly clear”.
“Polymyxin-B [native PMXB, reference compound]”: the IC50 in [12] (3 d, 37° C., pH 7.4) worked out at 55 nM; in data set [12] (3 d, 37° C., pH 8.5), 100 nM; in data set [12] (6 d, 37° C., pH 7.4) it was 228 nM; in data set [12] (6 d, 37° C., pH 8.5) it was 200 nM; in data set [12] (no treatment), 50 nM. Also, the “Antimicrobial potency (%)” value in [12] (3 d, 37° C., pH 7.4) is listed as 100%; in data set [12] (3 d, 37° C., pH 8.5), 100%; in data set [12] (6 d, 37° C., pH 7.4), 100%; in data set [12] (6 d, 37° C., pH 8.5) it was 100%; in data set [12] (no treatment), 100%.
For the compound “di-9-(fluorenylmethoxycarbonyl)polymyxin B [(Fmoc)2-PMBX]”, the IC50 in data set [12] (3 d, 37° C., pH 7.4) was 227 nM and 350 nM; in data set [12] (3 d, 37° C., pH 8.5) it was 125 nM; in data set [12] (6 d, 37° C., pH 8.5), 200 nM; in data set [12] (no treatment), 5000 nM. The “Antimicrobial potency (%)” value in data set [12] (3 d, 37° C., pH 8.5) was 80%; in data set [12] (6 d, 37° C., pH 8.5) it was 100%; in [12] (no treatment) it was ~1%. Besides, the “t½ of hydrolysis back to active PMXB, pH 7.4” value in [12] (buffer, pH 7.4) is listed as ~1 days. Moreover, the “t½ of hydrolysis back to active PMXB, pH 8.5” value in data set [12] (buffer, pH 8.5) is listed as ~3 days.
For the compound “hGH: native human growth hormone (Biotechnology General)”, the “Ability to displace iodinated hormone (%)” value in [4] (no treatment) was found to be 100%. Besides, in data set [4] (pH 10.5, 37° C., 4 days), the “Stability under the conditions applied to Fmoc-hGH” value is listed as “^(1)Displacement of iodinated hGH was carried out according to Gertler et al., 1984. Native hGH was fully stable under the conditions applied to Fmoc-hGH (pH 10.5, 37° C., 4 days)”.
